Target: T1, 2-HID (Pueraria montana, UniProt E9M5G1)
T1 construct: His-tagged (Ni-NTA) from pDEST17, expressed in E. coli BL21(DE3); first eight residues not observed; one molecule per asymmetric unit
T1 sequence (E9M5G1 1-325): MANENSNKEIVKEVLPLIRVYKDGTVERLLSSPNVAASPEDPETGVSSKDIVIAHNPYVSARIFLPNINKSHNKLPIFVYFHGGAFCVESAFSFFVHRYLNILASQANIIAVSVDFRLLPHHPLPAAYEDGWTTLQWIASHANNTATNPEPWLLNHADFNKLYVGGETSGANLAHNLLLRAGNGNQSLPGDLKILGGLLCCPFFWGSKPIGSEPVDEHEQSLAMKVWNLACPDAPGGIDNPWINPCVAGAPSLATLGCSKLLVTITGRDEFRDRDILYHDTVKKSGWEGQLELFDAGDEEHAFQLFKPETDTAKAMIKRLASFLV
Experiment: X-ray crystal structure, co-crystallization, […] Å
Assay type: binding
Conditions: carboxylesterase product; active site, hydrogen bond to Thr168; complex is 8EA1 or 8EA2, paper does not say which

Compound: O=[N+]([O-])c1ccc(O)cc1 [p-nitrophenol]
- X-ray crystal structure, co-crystallization, 2.3 Å: only a structure of 2-HID complexed with p-nitrophenol, a product of the carboxylesterase reaction
